Three compounds from patent US20160376659A1, “Breast Cancer Biomarker” (The University of Manchester, priority 2015, published 2016) can be followed below.

In test [1] the test system is Early (HBC×34) and metastatic (BB3RC31) PDX tumors. Briefly: BCSC activity (MFE, ALDEFLUOR) of ER+ PDX tumors treated in vivo. Further details: species or system mice. The note with it: 14 days; for BCSC activity measured by MFE and ALDH enzymatic activity: tamoxifen 10 mg/kg/day oral, fulvestrant 200 mg/kg/week s.c. As to the method: Early (HBC×34) and metastatic (BB3RC31) BC estrogen-dependent PDXs were administered with 8 ug/ml of 17-beta estradiol in drinking water at all times and were treated with drugs when tumors reached 200-300 mm^3. Experiments were performed using PDX tumors between passages 5 and 8. Animal weight and tumor size was measured bi-dimensionally using callipers twice a week. The HBC×34 model was kindly provided by Dr Elisabetta Marangoni from Institute Curie, Paris (Cottu et al., 2012).
Tamoxifen citrate (Sigma, T9262, 10 mg/kg/day) and RO4929097 (Cellagen Technology, 3 mg/kg/day) were administered by oral gavage (0.1 ml/dose) on a five day from seven basis (weekends excluded) for fourteen days. Tamoxifen citrate and RO4929097 were prepared in 1% carboxymethylcellulose (Sigma, C9481) dissolved in distilled water. Fulvestrant (kindly provided by Astrazeneca, 200 mg/kg/week) was administered by subcutaneous injection (0.1 ml/dose) on a weekly basis for fourteen days. The HBC×22 and HBC×34 tamoxifen-resistant PDXs have been established by our collaborators in the Curie Institute (Cottu el al, 2014) and were treated for fourteen days in the presence or absence of the gamma-secretase inhibitor RO4929097 (10 mg/kg/day, oral gavage). […]
Single cell suspensions of freshly isolated ER+ primary and metastatic patient-derived samples were cultured for 7-9 days (primary cells) in mammosphere colony assays in the presence of ethanol, 10^−6 M 4-hydroxy-tamoxifen or 10^−7 M fulvestrant. […] Mammosphere formation efficiency (MFE) was calculated by dividing the number of mammospheres formed (≧50 μm) by the original number of single cells seeded (500 cells/cm^2 for primary cells and 200 cells/cm^2 for cell lines) and is expressed as fold change normalised to control or as the mean percentage of MFE (Shaw et al., 2012).
Dissociated single cells were suspended in Aldefluor assay buffer containing an ALDH substrate, bodipyaminoacetaldehyde (BAAA) at […], and incubated for 45 min at 37° C. […] Data were acquired on a LSR II (BD) flow cytometer and analysed using the BD FACSDiva™ software.

The subject of test [2] is MCF-7, T47D and ZR-75-1 cells. Put plainly: BCSC activity (MFE, ALDH-positive cells) of pre-treated ER+ cell lines. The note with it: for ALDH-positive cells / mammosphere-forming activity: 6 days in vitro pre-treatment, 10^−6 M tamoxifen, 10^−7 M fulvestrant. It is filed as cell-based, human. As to the method:
Single cell suspensions of freshly isolated ER+ primary and metastatic patient-derived samples were cultured for 7-9 days (primary cells) in mammosphere colony assays in the presence of ethanol, 10^−6 M 4-hydroxy-tamoxifen or 10^−7 M fulvestrant. Primary mammospheres were dissociated and replated in secondary mammosphere suspension culture for a further 7-9 days to measure self-renewal. Patient-derived xenograft cells were cultured for 7-10 days. For cell lines, cells were pre-treated in adherence and then cultured for 5 days in mammosphere culture. Mammosphere formation efficiency (MFE) was calculated by dividing the number of mammospheres formed (≧50 μm) by the original number of single cells seeded (500 cells/cm^2 for primary cells and 200 cells/cm^2 for cell lines) and is expressed as fold change normalised to control or as the mean percentage of MFE (Shaw et al., 2012).
Dissociated single cells were suspended in Aldefluor assay buffer containing an ALDH substrate, bodipyaminoacetaldehyde (BAAA) at […], and incubated for 45 min at 37° C. To distinguish between ALDH-positive and -negative cells, a fraction of cells was incubated under identical conditions in the presence of a 2-fold molar excess of the ALDH inhibitor, diethylaminobenzaldehyde (DEAB). Mouse cells were excluded from the FACS analysis with anti-mouse MHC Class I (H-2Kd) antibody conjugated with Pacific Blue (BioLegend, 116616). 7-aminoactinomycin D (7AAD, BD) was added for dead cell exclusion. Data were acquired on a LSR II (BD) flow cytometer and analysed using the BD FACSDiva™ software.
(§1) MCF7, T47D and ZR-75-1 cell lines were purchased from American Tissue Culture Collection (ATCC) and cultured in DMEM/F-12, GlutaMAX (Gibco) with 10% FBS (Gibco). Cells were treated for 3 days or 6 days with ethanol (control), 10^-6M 4-OH-tamoxifen or 10^−7M fulvestrant and/or with 10 μM of gamma-secretase inhibitor RO4929097 (Cellagen Technology) or DMSO (control).

For test [3], the system named is Notch target genes HEY1 and HES1. Put plainly: HEY1 and HES1 expression in ER+ cell lines (real-time PCR, Western Blot). It is filed as cell-based, human. The settings on record: for expression of HEY1 and HES1: MCF-7, T47D, ZR-75-1, 6 days, in the ALDH+ subpopulation. As to the method: as §1
Total RNA was extracted using the RNeasy Plus Mini Kit (QIAGEN, 74104) and the concentration and purity determined using an ND-1000 spectrophotometer (NanoDrop Technologies). Reverse transcription of 1 μg of RNA was performed with Oligo(dT) using the TaqMan Reverse Transcription Reagents from Applied Biosystems (N8080234). Samples were incubated on a thermal cycler (MJ Research) for 10 minutes at 25° C., 30 minutes at 48° C. and 5 minutes at 95° C. Quantitative real-time PCR reactions were set up in triplicate in 384-well plates and performed on the 7900 PCR machine (Applied Biosystems) using TaqMan® Universal PCR Master Mix (Applied Biosystems) and probes from Universal Probe Library (Roche). Conditions used for amplification of cDNA fragments were as follows: 95° C. for 5 min, 40 cycles of amplification-95 C for 15 sec, 60 C for 1 min. The expression levels were calculated using the ΔΔCt method and normalised to the housekeeping genes 36B4 and GAPDH. The sequences of the primers and probes used can be found in the table below.
Proteins were extracted with Protein Lysis Buffer (25 mM HEPES, 50 mM NaCl, 30 mM NaPP, 50 mM NaF, 1% Triton-X-100, 10% Glycerol, 5 mM EDTA, Protease Inhibitor cocktail, 1 μM PMSF). Lysates were placed on a rotator for 1 hour at 4° C., then were centrifuged at 10000 g at 4° C. for 10 min, and supernatants were collected. Protein concentrations were assessed using the BCA Protein Assay Kit (Thermo Scientific, 23225). Proteins were separated on a 10% gel (Biorad, 456-1033) by SDS-PAGE at 200V for 1 hour, and then were transferred on polyvinylidene difluoride (PVDF) membranes (BioRad, 170-4157) at 25 V/1,300 mA for 15 min using a Trans Blot Turbo (BioRad, 170-4155). […]

Entries after “also recorded” stand apart in the source; their conditions may differ.

On to `CC/C(=C(\c1ccccc1)c1ccc(OCCN(C)C)cc1)c1ccccc1` [tamoxifen, (Z)-2-[4-(1,2-diphenylbut-1-enyl)phenoxy]-N,N-dimethylethanamine], for which the “BCSC activity measured by MFE and ALDH enzymatic activity” value in test [1] was “paradoxical increase; also recorded: increasing”. Also, in test [2], the ALDH-positive cells entry is reported as “enriched” and the mammosphere-forming activity result is “enriched”. Besides, the “expression of HEY1 and HES1” value in test [3] is “preferentially increased”.

Consider `CC(C)(C(=O)NCC(F)(F)C(F)(F)F)C(=O)N[C@@H]1C(=O)Nc2ccccc2-c2ccccc21` [RO4929097], for which the “endocrine stimulated BCSC activity (MFE and Aldefluor activity)” value in test [1] (RO4929097 3 mg/kg/day oral with tamoxifen or fulvestrant) is “significantly inhibited”. For the same compound, the “BCSC activity as assayed by MFE and ALDH-positive cells” value in test [2] (3 days tamoxifen or fulvestrant concomitantly with RO4929097 10 μM) was “reduced”. For the same compound, the “HEY1 and HES1 mRNA and protein levels” value in test [3] (MCF-7 cells pre-treated six days with RO4929097 10 μM) is “decreased”.

For the compound `C[C@]12CC[C@@H]3c4ccc(O)cc4C[C@@H](CCCCCCCCC[S+]([O-])CCCC(F)(F)C(F)(F)F)[C@H]3[C@@H]1CC[C@@H]2O` (some centres unmarked) [fulvestrant], in test [1], the “BCSC activity measured by MFE and ALDH enzymatic activity” value is on record as “paradoxical increase; also recorded: increasing”. Besides, in test [2], the ALDH-positive cells result was “enriched” and the mammosphere-forming activity entry is listed as “enriched”. Also, the “expression of HEY1 and HES1” value in test [3] was “preferentially increased”.
